pEC50, pIC50: −log10 of the molar value. Read-outs that look alike come from different tables or passages of the source. Some results are limits rather than exact numbers.

This is an account of results in patent US9650339B2, “Inhibitors of histone demethylases” (Gilead Sciences, Inc., priority 2013, dated 2017).

In one experiment the target is KDM6A (UTX) (Homo sapiens, UniProt O15550). Nature of the experiment: Histone lysine demethylase AlphaLISA assay, KDM6A. Format: biochemical. The method, then:
(§1) Assays are performed analogously to the protocol described by PerkinElmer (Roy et al. PerkinElmer Technical Note: AlphaLISA #12, April 2011)
(§2) Enzymes are dissolved in enzyme buffer and incubated for 10 min before being added to 3% DMSO solutions of compounds in enzyme buffer. Incubated for another 10 minutes, before substrate solution is added and the reaction mixture is incubated at room temperature. 10 μL acceptor beads, suspended in Epigenetic Buffer (Perkin Elmer AL008) from stock, are added and the suspension is incubated in the dark at room temperature, before a suspension of streptavidin donor beads (Perkin Elmer 6760002) in Epigenetic Buffer is added. After incubation at room temperature in the dark the plates are read. […]
BK27M3: Biotin-ATKAAR(Kme3)SAPATGGVKKPHRY-NH2? (Caslo, Denmark) […]
(§3) Substrate Solution: Substrate, 25 μM L-Asc, and 10 μM α-KG in Buffer A.

Another experiment concerns the target T1, KDM5B (PLU-1) (Homo sapiens, UniProt Q9UGL1).
T1 sequence (Q9UGL1 1-809): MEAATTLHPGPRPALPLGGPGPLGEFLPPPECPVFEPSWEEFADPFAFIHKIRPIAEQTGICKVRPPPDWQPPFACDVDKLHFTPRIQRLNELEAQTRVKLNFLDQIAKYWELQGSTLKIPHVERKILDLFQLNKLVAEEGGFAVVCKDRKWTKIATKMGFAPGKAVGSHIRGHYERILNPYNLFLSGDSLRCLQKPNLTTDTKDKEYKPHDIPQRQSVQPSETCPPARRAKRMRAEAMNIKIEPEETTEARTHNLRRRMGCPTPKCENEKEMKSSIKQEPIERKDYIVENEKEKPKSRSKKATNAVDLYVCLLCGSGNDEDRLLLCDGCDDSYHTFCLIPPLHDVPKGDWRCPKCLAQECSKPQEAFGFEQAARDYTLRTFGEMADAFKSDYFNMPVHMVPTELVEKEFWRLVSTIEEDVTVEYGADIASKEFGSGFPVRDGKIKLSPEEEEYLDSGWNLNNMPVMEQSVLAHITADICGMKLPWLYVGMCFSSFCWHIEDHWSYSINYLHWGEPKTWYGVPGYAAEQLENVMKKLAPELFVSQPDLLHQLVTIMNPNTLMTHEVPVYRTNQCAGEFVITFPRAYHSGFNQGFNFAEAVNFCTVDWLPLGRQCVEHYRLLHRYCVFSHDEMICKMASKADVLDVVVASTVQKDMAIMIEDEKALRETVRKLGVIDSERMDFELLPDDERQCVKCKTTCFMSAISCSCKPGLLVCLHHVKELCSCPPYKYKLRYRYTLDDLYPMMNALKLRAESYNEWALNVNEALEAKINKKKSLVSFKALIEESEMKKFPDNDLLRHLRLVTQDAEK
Kind of experiment: Histone lysine demethylase AlphaLISA assay, KDM5B. Format: biochemical. The procedure: as §1, §2
H3K4M3B: H-ART(Kme3)QTARKSTGGKAPRKQLA-NH-Biotin (Caslo, Denmark) […]
as §3

Another experiment relates to MCF7 cells. Nature of the experiment: Cell proliferation assay MCF7. The experiment is classed as cell-based. Particulars: MCF7 human breast cancer cells; 120 hours; ATPlite 1 Step. The method, then:
MCF7 cells were seeded in multi well plates at a density optimized to give approximately 90% confluent cells at the time of harvest. Cells were incubated for 24 hours before addition of compound. Compounds were diluted in complete medium and added to the plates in duplicates. The final concentration of DMSO was maximum 0.5%. Complete medium used was DMEM with GlutaMAX containing 10% FBS and pen/strep.
120 hours after addition of compounds, the plates were harvested and analyzed by ATPlite 1 Step (Perkin Elmer, cat no 6016739) according to the manufactures recommendation.

Another experiment deals with T2, KDM4C (JMJD2C) (Homo sapiens, UniProt Q9H3R0).
T2 sequence (Q9H3R0 1-349): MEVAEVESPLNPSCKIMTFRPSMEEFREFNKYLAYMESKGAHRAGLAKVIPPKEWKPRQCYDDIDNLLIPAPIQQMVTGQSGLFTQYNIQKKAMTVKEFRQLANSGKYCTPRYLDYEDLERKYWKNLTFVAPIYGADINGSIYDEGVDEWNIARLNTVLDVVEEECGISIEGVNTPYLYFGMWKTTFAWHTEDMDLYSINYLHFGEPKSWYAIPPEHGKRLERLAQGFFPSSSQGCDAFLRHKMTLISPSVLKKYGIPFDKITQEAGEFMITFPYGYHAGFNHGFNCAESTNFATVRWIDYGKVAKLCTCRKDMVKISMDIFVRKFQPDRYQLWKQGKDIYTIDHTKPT
Nature of the experiment: Histone lysine demethylase AlphaLISA assay, KDM4C. Format: biochemical. The procedure: as §1
Enzymes are dissolved in enzyme buffer and incubated for 10 min before being added to 3% DMSO solutions of compounds in enzyme buffer. Incubated for another 10 minutes, before substrate solution is added and the reaction mixture is incubated at room temperature. 10 μL acceptor beads, suspended in Epigenetic Buffer (Perkin Elmer AL008) from stock, are added and the suspension is incubated in the dark at room temperature, before a suspension of streptavidin donor beads (Perkin Elmer 6760002) in Epigenetic Buffer is added. After incubation at room temperature in the dark the plates are read.
BK9M3: Biotin-ARTKQTAR(KMe3)STGGKAPRKQ-NH2 (Caslo, Denmark) […]
as §3

Another experiment deals with T3, KDM2B (FBXL10) (Homo sapiens, UniProt Q8NHM5).
T3 sequence (Q8NHM5 1-650): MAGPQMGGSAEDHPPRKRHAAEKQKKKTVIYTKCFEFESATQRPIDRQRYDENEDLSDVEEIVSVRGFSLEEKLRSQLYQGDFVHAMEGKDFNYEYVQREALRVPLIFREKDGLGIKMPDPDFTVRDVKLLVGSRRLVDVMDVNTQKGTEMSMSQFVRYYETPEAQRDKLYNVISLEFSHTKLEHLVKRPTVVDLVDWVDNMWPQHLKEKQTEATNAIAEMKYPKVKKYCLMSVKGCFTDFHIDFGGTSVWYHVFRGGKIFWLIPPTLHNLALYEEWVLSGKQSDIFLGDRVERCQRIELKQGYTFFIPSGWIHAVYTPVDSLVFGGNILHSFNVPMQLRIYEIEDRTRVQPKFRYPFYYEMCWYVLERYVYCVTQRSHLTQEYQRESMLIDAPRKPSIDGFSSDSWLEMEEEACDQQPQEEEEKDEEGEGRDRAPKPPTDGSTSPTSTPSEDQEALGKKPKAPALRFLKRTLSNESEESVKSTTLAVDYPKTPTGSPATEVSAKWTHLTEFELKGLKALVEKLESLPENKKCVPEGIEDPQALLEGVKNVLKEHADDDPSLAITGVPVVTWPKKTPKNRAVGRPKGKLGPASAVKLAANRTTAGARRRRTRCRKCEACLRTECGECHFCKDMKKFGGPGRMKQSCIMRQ
Nature of the experiment: Histone lysine demethylase AlphaLISA assay, KDM2B. Particulars: read-out: KDM2B HDME Inhibition IC50. Format: biochemical. The procedure: as §1, §2
BH3K36M2: RKAAPATGGVK(Me2)KPHRYRPGTVK-(BIOTIN)? (Anaspec)
as §3

[1] abbreviates: read-out: KDM6A HDME Inhibition IC50.
Setting [2] is: read-out: KDM5B HDME Inhibition IC50.
Setting [3] is: read-out: KDM4C HDME Inhibition IC50.

Chain of KDM6A (UTX) (O15550 919-1401): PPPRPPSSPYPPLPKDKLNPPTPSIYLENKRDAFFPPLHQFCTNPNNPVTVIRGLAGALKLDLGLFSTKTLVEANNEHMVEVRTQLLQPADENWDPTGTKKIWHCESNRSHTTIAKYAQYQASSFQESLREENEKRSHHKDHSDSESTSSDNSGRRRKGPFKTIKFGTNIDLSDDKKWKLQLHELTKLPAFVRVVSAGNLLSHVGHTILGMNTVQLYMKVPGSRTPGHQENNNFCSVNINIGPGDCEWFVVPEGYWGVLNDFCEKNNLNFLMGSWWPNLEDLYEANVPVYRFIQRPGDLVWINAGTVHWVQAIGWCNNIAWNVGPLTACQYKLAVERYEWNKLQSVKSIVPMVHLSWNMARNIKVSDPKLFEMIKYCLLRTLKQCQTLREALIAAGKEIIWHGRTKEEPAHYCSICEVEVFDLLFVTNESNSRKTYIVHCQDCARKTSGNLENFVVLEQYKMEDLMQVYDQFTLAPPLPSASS

Take `CCN(CC)C(=O)CNCc1cc(/C=N/CCc2ccc(C)cc2)ccn1` [Compound 69, N,N-diethyl-2-[({4-[{[2-(4-methylphenyl)-ethyl]imino}-methyl]pyridin-2-yl}methyl)amino]-acetamide]: the pIC50 was below 5.60 on KDM6A (UTX) (setting [1]), above 6.60 on KDM5B (PLU-1) (setting [2]) and 5.60 to 6.60 on KDM4C (JMJD2C) (setting [3]). The compound also gave a pEC50 with MCF7 cells below 5.60.
Turning to `CCN(CCN(C)C)C(=O)CNCc1cc(/C=N/CCCO)ccn1` [Compound 78, N-[2-(dimethylamino)-ethyl]-N-ethyl-2-[({4-[[(3-hydroxypropyl)imino]-methyl]pyridin-2-yl}-methyl)amino]-acetamide], the pIC50 at KDM5B (PLU-1) (setting [2]) is above 6.60; at KDM2B (FBXL10), below 5.60; at KDM4C (JMJD2C) (setting [3]) it was 5.60 to 6.60. The pEC50 in the experiment on MCF7 cells is above 6.60.
On to `CCN(CCN(C)C)C(=O)CNCc1cc(C2NCC(C)(C)CO2)ccn1` (centres unmarked) [Compound 87, 2-({[4-(5,5-dimethyl-1,3-oxazinan-2-yl)pyridin-2-yl]methyl}amino)-N-[2-(dimethylamino)-ethyl]-N-ethylacetamide], for which the pIC50 on KDM5B (PLU-1) (setting [2]) was above 6.60; at KDM2B (FBXL10), below 5.60; at KDM4C (JMJD2C) (setting [3]), 5.60 to 6.60. Moreover, the pEC50 with MCF7 cells is above 6.60.
On to `CCOC(=O)c1ccccc1OC(=O)NCc1ccnc(CNCC(=O)N(CC)CCN(C)C)c1` [Compound 29, ethyl 2-({[(2-{[({[2-(dimethylamino)-ethyl](ethyl)-carbamoyl}methyl)-amino]methyl}pyridin-4-yl)methyl]-carbamoyl}-oxy)benzoate], for which the pIC50 at KDM6A (UTX) is below 5.60; against KDM5B (PLU-1) it was 5.60 to 6.60; at KDM4C (JMJD2C), below 5.60. For the same compound, the pEC50 in the experiment on MCF7 cells is 5.60 to 6.60.
Regarding `CN(C)C1CCC(CNCc2cc(C=O)ccn2)C1` (centres unmarked) [Compound 117, 2-[({[3-(dimethylamino)-cyclopenyl]methyl}-amino)methyl] pyridine-4-carbaldehyde], the pIC50 at KDM6A (UTX) (setting [1]) is below 5.60; at KDM5B (PLU-1) (setting [2]), above 6.60; on KDM4C (JMJD2C) (setting [3]) it was 5.60 to 6.60. Besides, the pEC50 with MCF7 cells was 5.60 to 6.60.
For `CCN(CC)CCCCNCc1cc(/C=N/CCCO)ccn1` [Compound 71, 3-[{[2-({[4-(diethylamino)-butyl]amino}methyl)pyridin-4-yl]methylidene}amino]-propan-1-ol], the pIC50 on KDM6A (UTX) (setting [1]) is below 5.60; on KDM5B (PLU-1) (setting [2]) it was above 6.60; at KDM4C (JMJD2C) (setting [3]) it was below 5.60. This compound also showed a pEC50 in the experiment on MCF7 cells above 6.60.
`CCN(CC)CCCCNCc1cc(/C=N/CC(C)(C)CO)ccn1` [Compound 76, 3-[{[2-({[4-(diethylamino)-butyl]amino}-methyl)pyridin-4-yl]methylidene}-amino]-2,2-dimethylpropan-1-ol]: the pIC50 is 5.60 to 6.60 at KDM5B (PLU-1) (setting [2]), below 5.60 at KDM2B (FBXL10) and below 5.60 on KDM4C (JMJD2C) (setting [3]). The compound also had a pEC50 in the experiment with MCF7 cells above 6.60.
On to `CCN(CC)CCCCNCc1cc(/C=N/C(C)CO)ccn1` (centres unmarked) [Compound 73, 2-[{[2-({[4-(diethylamino)-butyl]amino}-methyl)pyridin-4-yl]methylidene}-amino]propan-1-ol], for which the pIC50 was above 6.60 at KDM5B (PLU-1) (setting [2]) and below 5.60 on KDM4C (JMJD2C) (setting [3]). In addition, the pEC50 with MCF7 cells was above 6.60.
For the compound `CCN(CC)CCCCNCc1cc(/C=N/C(CO)c2ccccc2)ccn1` (centres unmarked) [Compound 75, 2-[{[2-({[4-(diethylamino)-butyl]amino}-methyl)pyridin-4-yl]methylidene}-amino]-2-phenylethan-1-ol], the pIC50 was above 6.60 at KDM5B (PLU-1) (setting [2]) and below 5.60 on KDM4C (JMJD2C) (setting [3]). Besides, the pEC50 in the experiment on MCF7 cells is above 6.60.
In the case of `CCN(CCN(C)C)C(=O)CNCc1cc(/C=N/CC(O)CN(C)C)ccn1` (centres unmarked) [Compound 86, 2-[({4-[{[3-(dimethylamino)-2-hydroxypropyl]imino}-methyl]pyridin-2-yl}methyl)amino]-N-[2-(dimethylamino)-ethyl]-N-ethylacetamide], the figures for the pIC50 on KDM6A (UTX) (setting [1]), on KDM5B (PLU-1) (setting [2]) and at KDM2B (FBXL10) were below 5.60, above 6.60 and below 5.60, respectively. In addition, the pEC50 in the experiment on MCF7 cells is above 6.60.
